From patent publication US20240239801A1, “PYRIMIDO[5,4,D]PYRIMIDINE COMPOUNDS, COMPOSITIONS COMPRISING THEM AND USES THEREOF” (Université de Montréal, priority 2021, published 2024)

Experiments:
[1] = tested on: RAS-mutant cancer cell lines pERK; experiment: Phospho-ERK inhibition in a panel of cancer cell lines (AlphaLISA); format: cell-based, human
Description: All cancer cell lines (A375, A101D, A2058, RKO, HT29 SK-MEL 30, IPC298, HepG2, HCT-116, Lovo, SW620, SW480, NCI-H358, NCI-H2122, Calu-6, NCIH2087, NCIH1755, NCIH1666 and Mewo) were obtained from ATCC and cultured in RPMI-1640 medium (Gibco) supplemented with 5% heat inactivated fetal bovine serum (FBS, Wisent) at 37° C. under 5% CO2. Cells were maintained in T175 flasks (Greiner). They were passaged by removing the culture medium, washing once in 10 mL of room temperature Phosphate Buffered Saline (PBS; Wisent) and incubating at 37° C. with 2 mL of 0.05% Trypsin (Thermo-Fisher). […]
After treatment, media was removed, and cells were lysed in 50 μL of 1× AlphaScreen Ultra Lysis Buffer (Perkin Elmer). […] After completion of the reactions, the signals were recorded on an EnVision plate reader (Perkin Elmer) using built in AlphaLISA® settings.
The effect of each compound dilution on the pERK signal was expressed in % inhibition and calculated as follows. […]
The ability of each compound to inhibit pERK signal was expressed as an IC50 value obtained by plotting the inhibition values for each data point of a dilution series and fitting the obtained curves using a log(agonist) versus response−variable slope (four parameters) function using GraphPadPrism (V7.0). […]

[2] = tested on: RAS-mutant HCT-116 cells pERK/pMEK; experiment: Immunoblot analysis of pERK and pMEK; format: cell-based, human; settings: FIG. 2, 1 h treatment
Description: For immunoblotting analysis, 500,000 HCT-116 cells were plated in 1 mL of complete RPMI-1640 growth medium in 24-well flat-bottomed transparent dishes (Costar). Cells were maintained overnight at 37° C. under 5% CO2 before treatment with compounds' dilution series for one hour. Cells were then washed once in PBS and lized in 250 μL of Igepal Lysis Buffer (50 mM Tris-HCl pH 7.5, 150 mM NaCl, 1% Igepal-CA630, 1 mM EDTA, 10% Glycerol) supplemented with Leupeptin, Aprotinin, PMSF, phosphatase inhibitor cocktail (Sigma) and Na3VO4 at 4° C. for 15 minutes with gentle rocking. Cell extracts were then cleared by centrifugation at 20,000 g at 4° C. for 10 minutes. Cleared lysates were then transferred on ice in fresh tubes and then boiled in sample loading buffer (100 mM Tris-HCl pH 6.8, 4% SDS, 0.2% bromophenol blue, 20% glycerol, 200 mM β-mercaptoethanol) for 5 minutes prior to fractionation by SDS-PAGE and transfer to nitrocellulose membranes (PALL). […]

Compound | paradoxical induction of the pathway (pERK) ([1]; RAS-mutant cell lines of Table D) | YMIN of pERK IC50 curves ([1]; in 11 of the 13 RAS-mutant cell lines tested) [%] | paradoxical induction of pERK or pMEK signaling (immunoblot) [2]
Cc1ccc2c(Nc3cccc(Cl)c3F)nccc2c1NC(=O)c1csc2c(N)ncnc12 [Belvarafenib, reference compound] | mild to strong induction of the pathway | < −30 | 
Nc1cccc2c1ncn2-c1ncc2ncnc(Nc3c(F)ccc(NS(=O)(=O)c4cccc(Cl)c4Cl)c3F)c2n1 [Example 80] |  |  | does not induce paradoxical induction of pERK or pMEK signaling
